Laboratory results as given in patent US5955464A, “4-anilinoquinazoline derivatives bearing a heteroaryl substituted at the 6-position and possessing anti-cell-proliferation properties” (Zeneca Limited, priority 1994, dated 1999).

Columns and labels:
KB cells = experiment: in vitro assay of inhibition of EGF-stimulated growth of the human naso-pharyngeal cancer cell line KB (Test (b)); assay type: cell-based; conditions: 72 h, EGF 10 ng/ml, 3 days
Method: (b) An in vitro assay which determines the ability of a test compound to inhibit the EGF-stimulated growth of the human naso-pharyngeal cancer cell line KB. KB cells were seeded into wells at a density of 1×10^4 -1.5×10^4 cells per well and grown for 24 hours in DMEM supplemented with 5% FCS (charcoal-stripped). Cell growth was determined after incubation for 3 days by the extent of metabolism of MTT tetrazolium dye to furnish a bluish colour. Cell growth was then determined in the presence of EGF (10 ng/ml) or in the presence of EGF (10 ng/ml) and a test compound at a range of concentrations. An IC50 value could then be calculated.

liver hepatocyte growth = experiment: in vivo assay in male rats of inhibition of TGFα-stimulated liver hepatocyte growth (Test (c)); conditions: Rattus norvegicus, usually oral, inhibition of BrdU uptake, approximate ED50
Method: (c) An in vivo assay in a group of male rats which determines the ability of a test compound (usually administered orally as a ball-milled suspension in 0.5% polysorbate) to inhibit the stimulation of liver hepatocyte growth caused by the administration of the growth factor TGFα (400 μg/kg subcutaneously, usually dosed twice, 3 and 7 hours respectively after the administration of the test compound).
In a control group of rats, the administration of TGFα causes on average a 5-fold stimulation of liver hepatocyte growth.
Cell-growth in the control and test animals is determined as follows:
On the morning of the day after the dosing of the test compound (or 0.5% polysorbate in the control group), the animals are dosed with bromodeoxyuridine (BrdU; 100 mg/kg intraperitoneally). The animals are killed four hours later and the livers are excised. […] Further tests were carried out using a range of doses of the test compounds to allow the calculation of an approximate ED50 value for the inhibition of liver hepatocyte proliferation as determined by inhibition of the uptake of BrdU.

[1] = test system: xenografts of the human vulval epidermoid carcinoma cell line A431; experiment: in vivo assay in athymic nude mice of inhibition of growth of A431 xenografts (Test (d)); design: species or system athymic nude mice (human A431 xenograft); conditions: 200 mg/kg/day, once daily, usually oral
Method: (d) An in-vivo assay in a group of athymic nude mice (strain ONU:Alpk) which determines the ability of a test compound (usually administered orally as a ball-milled suspension in 0.5% polysorbate) to inhibit the growth of xenografts of the human vulval epidermoid carcinoma cell line A431.
A431 cells were maintained in culture in DMEM supplemented with 5% FCS and 2 mM glutamine. Freshly cultured cells were harvested by trypsinization and injected subcutaneously (10 million cells/0.1 ml/mouse) into both flanks of a number of donor nude mice. When sufficient tumour material was available (after approximately 9 to 14 days), fragments of tumour tissue were transplanted into the flanks of recipient nude mice (test day 0). On the eighth day after transplantation (test day 7) groups of 8 to 10 mice with similar-sized tumours were selected and dosing of the test compound was commenced. Once-daily dosing of test compound was continued for a total of 13 days (test days 7 to 19 inclusive). In some studies the dosing of the test compound was continued beyond test day 19, for example to test day 26. In each case, on the following day the animals were killed and final tumour volume was calculated from measurements of the length and width of the tumours. Results were calculated as a percentage inhibition of tumour volume relative to untreated controls.

[2] = target: T1, EGF receptor tyrosine kinase (Homo sapiens, UniProt P00533); experiment: in vitro assay of inhibition of the enzyme EGF receptor tyrosine kinase (Test (a)); assay type: biochemical; conditions: EGF receptor tyrosine kinase from A-431 cells
T1 construct: Receptor tyrosine kinase was obtained in partially purified form from A-431 cells; endogenous in cells; host or cells: A-431 cells (human vulval carcinoma), Triton X-100-solubilised membrane fraction
T1 sequence (P00533 25-1210): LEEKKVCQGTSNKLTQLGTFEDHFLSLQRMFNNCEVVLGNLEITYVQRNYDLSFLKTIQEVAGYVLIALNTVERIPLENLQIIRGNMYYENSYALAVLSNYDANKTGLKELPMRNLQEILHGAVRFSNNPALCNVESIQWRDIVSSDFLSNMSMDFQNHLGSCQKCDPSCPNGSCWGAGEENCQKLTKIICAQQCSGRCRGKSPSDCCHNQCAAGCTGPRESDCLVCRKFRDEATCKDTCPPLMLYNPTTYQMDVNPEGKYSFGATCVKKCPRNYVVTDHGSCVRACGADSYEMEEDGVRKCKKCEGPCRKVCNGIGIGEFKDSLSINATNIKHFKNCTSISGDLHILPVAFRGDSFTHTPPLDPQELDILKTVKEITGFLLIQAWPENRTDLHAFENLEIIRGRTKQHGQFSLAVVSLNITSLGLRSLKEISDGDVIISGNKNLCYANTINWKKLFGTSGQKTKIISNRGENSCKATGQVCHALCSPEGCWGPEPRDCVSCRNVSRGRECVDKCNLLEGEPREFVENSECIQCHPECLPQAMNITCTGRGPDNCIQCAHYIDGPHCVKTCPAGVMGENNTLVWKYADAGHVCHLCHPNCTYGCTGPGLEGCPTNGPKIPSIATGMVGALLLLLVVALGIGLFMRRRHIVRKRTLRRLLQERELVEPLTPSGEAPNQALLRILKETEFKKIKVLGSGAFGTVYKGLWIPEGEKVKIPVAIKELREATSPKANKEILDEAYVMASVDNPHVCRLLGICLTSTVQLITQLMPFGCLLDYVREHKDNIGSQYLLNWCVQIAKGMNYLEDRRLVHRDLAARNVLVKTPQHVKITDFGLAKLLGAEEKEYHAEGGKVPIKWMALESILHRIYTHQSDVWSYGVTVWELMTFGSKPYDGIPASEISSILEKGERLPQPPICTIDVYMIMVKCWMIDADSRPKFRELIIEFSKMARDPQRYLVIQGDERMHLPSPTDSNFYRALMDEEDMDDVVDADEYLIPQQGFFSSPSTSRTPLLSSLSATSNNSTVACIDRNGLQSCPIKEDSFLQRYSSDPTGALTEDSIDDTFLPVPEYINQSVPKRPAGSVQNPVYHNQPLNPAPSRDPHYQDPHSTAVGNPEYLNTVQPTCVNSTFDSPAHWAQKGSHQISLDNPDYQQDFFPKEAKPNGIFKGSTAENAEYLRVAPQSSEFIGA
T1 sequence (P01133 971-1023 partner limits assumed): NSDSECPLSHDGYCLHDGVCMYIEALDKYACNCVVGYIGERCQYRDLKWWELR
Method: (a) An in vitro assay which determines the ability of a test compound to inhibit the enzyme EGF receptor tyrosine kinase. Receptor tyrosine kinase was obtained in partially purified form from A-431 cells (derived from human vulval carcinoma) by the procedures described below which are related to those described by Carpenter et al., J. Biol. Chem., 1979, 254, 4884, Cohen et al, J. Biol. Chem., 1982, 257, 1523 and by Braun et al., J. Biol. Chem., 1984, 259, 2051.
A-431 cells were grown to confluence using Dulbecco's modified Eagle's medium (DMEM) containing 5% fetal calf serum (FCS). The obtained cells were homogenised in a hypotonic borate/EDTA buffer at pH 10.1. The homogenate was centrifuged at 400 g for 10 minutes at 0-4° C. The supernatant was centrifuged at 25,000 g for 30 minutes at 0-4° C. […]
The test compound/EGF mixture solution (5 μl) was added to the test enzyme solution (10 μl) and the mixture was incubated at 0-4° C. for 30 minutes. […] Radioactivity present in the filter paper was measured using a liquid scintillation counter (Sequence A). […]
Receptor tyrosine kinase inhibition was calculated as follows: [formula]
The extent of inhibition was then determined at a range of concentrations of test compound to give an IC50 value.

[3] = test system: another carcinoma which does not express EGF receptor tyrosine kinase; conditions: athymic nude mice; Toi et al., 1990; cited from earlier work
[4] = test system: human mammary carcinoma which expresses EGF receptor tyrosine kinase; conditions: athymic nude mice; Toi et al., 1990; cited from earlier work
[5] = test system: EGF receptor tyrosine kinase; conditions: in words; Fry et al., Science, 1994, 265, 1093; cited from earlier work

SMILES: Cc1cccc(Nc2ncnc3ccc(-n4ccnc4)cc23)c1 [4-(3-methylanilino)-6-(1-imidazolyl)quinazoline]
- IC50 (KB cells): 510 nM
- ED50 (liver hepatocyte growth): < 12.5 mg/kg
- inhibition in Test (d) (percentage inhibition of tumour volume) [1]: 63%
- IC50 [2]: 26 nM

SMILES: O=CN/C=C/c1cc(O)ccc1O [erbstatin]
- growth of another carcinoma not expressing EGF receptor tyrosine kinase [3]: without effect on the growth
- growth of transplanted human mammary carcinoma expressing EGF receptor tyrosine kinase [4]: specifically attenuates the growth

SMILES: COc1cc2ncnc(Nc3cccc(Br)c3)c2cc1OC [4-(3-bromoanilino)-6,7-dimethoxyquinazoline]
- inhibition of EGF receptor tyrosine kinase [5]: highly potent inhibitor
